Laboratory results published in ChEMBL document CHEMBL1201862, “PubChem BioAssay data set” (2004).
Activity calls are given as the source filed them.

Tests used:
Genome polyprotein = Genome polyprotein (dengue virus type 2, UniProt P29990); experiment: flavivirus cap methylation enzyme inhibition – biochemical, confirmation dose response, primary screen (AID 588689); assay type: functional
Vero = experiment: viability of Vero cells under compound – cytotoxicity control for flavivirus capping enzyme inhibitors (AID 588742); assay type: functional; settings: Chlorocebus sabaeus
[1] = target: Eukaryotic translation initiation factor 4E (Mus musculus, UniProt P63073); experiment: blockers of eIF4G binding by eIF4E – biochemical, TR-FRET, dose response (AID 855); assay type: functional;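 note: potency for disrupting eIF4E binding to eIF4GI seen as loss of FRET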
Chain of Eukaryotic translation initiation factor 4E (P63073 whole entry): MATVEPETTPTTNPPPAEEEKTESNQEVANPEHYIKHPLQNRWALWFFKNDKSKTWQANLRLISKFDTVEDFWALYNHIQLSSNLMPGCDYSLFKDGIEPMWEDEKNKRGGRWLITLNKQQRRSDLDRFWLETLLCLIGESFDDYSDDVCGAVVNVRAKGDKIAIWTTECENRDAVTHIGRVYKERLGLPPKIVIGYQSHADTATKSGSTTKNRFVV

[2] = target: Glucose-6-phosphate 1-dehydrogenase (Homo sapiens, UniProt P11413); experiment: inhibition of Homo sapiens G6PD, dose series – biochemical, fluorescence, selectivity assay for P. falciparum G6PD inhibitor project, dose response (AID 504792); assay type: functional
Chain of Glucose-6-phosphate 1-dehydrogenase (P11413 whole entry): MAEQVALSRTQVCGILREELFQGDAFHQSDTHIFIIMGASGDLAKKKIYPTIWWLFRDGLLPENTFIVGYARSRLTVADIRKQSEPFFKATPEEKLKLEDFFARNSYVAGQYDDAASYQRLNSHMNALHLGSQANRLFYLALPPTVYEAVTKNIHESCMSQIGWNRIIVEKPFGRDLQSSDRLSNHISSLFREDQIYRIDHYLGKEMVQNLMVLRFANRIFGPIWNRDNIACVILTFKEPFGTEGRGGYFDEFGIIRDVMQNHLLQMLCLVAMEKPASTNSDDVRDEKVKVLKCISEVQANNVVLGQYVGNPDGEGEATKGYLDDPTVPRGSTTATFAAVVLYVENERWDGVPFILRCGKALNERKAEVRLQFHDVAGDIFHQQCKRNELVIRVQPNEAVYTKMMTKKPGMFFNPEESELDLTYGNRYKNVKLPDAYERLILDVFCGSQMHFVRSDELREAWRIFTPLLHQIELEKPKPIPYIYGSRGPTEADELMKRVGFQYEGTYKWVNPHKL

[3] = Luminescence Cell-Based Dose Confirmation HTS to Identify Activators of 5'UTR Stem-Loop Driven Alpha-Synuclein mRNA Translation in H4 Neuroglioblastoma Cells. [Related pubchem assays: 1829 (Project Summary), 1814 (Primary HTS)]; assay type: functional
[4] = Luminescence Cell-Based Dose Response HTS to Identify Activators of Luciferase Translation or Activity in H4 […] Cells. [Related pubchem assays: 1829 (Project Summary), 1814 (Primary HTS)]; assay type: functional
H4 = experiment: Luminescence Cell-Based Dose Response HTS to Identify Activators of 5'UTR Stem-Loop Driven Prion Protein mRNA Translation in H4 Neuroglioblastoma Cells. [Related pubchem assays: 1829 (Project Summary), 1814 (Primary HTS)]; assay type: functional; settings: Homo sapiens
[5] = target: Glyceraldehyde-3-phosphate dehydrogenase (Homo sapiens, UniProt P04406)
Chain of Glyceraldehyde-3-phosphate dehydrogenase (P04406 whole entry): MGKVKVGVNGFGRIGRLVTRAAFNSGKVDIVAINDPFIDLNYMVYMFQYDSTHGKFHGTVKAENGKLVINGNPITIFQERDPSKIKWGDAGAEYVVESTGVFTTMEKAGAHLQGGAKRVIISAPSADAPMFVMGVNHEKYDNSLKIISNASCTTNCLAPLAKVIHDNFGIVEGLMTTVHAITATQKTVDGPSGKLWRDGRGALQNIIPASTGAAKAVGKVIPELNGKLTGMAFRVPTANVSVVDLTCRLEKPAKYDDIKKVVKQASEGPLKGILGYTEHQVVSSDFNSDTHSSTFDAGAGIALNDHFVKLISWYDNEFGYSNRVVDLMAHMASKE

[6] = THP-1 cell cytotoxicity, dose response, cytotoxicity control for non-replicating M. tuberculosis project (AID 489025); assay type: functional
[7] = Vero E6 cell cytotoxicity, dose response, cytotoxicity control for non-replicating M. tuberculosis project, secondary assay (AID 492998); assay type: functional, VeroE6; settings: Vero C1008
[8] = HepG2 cell cytotoxicity, dose response, cytotoxicity control for non-replicating M. tuberculosis project (AID 489018); assay type: functional; settings: Mycobacterium tuberculosis
[9] = target: T1, DNA repair protein RAD52 homolog (Homo sapiens, UniProt P43351); assay type: functional, biochemical
T1 sequence (P43351 whole entry): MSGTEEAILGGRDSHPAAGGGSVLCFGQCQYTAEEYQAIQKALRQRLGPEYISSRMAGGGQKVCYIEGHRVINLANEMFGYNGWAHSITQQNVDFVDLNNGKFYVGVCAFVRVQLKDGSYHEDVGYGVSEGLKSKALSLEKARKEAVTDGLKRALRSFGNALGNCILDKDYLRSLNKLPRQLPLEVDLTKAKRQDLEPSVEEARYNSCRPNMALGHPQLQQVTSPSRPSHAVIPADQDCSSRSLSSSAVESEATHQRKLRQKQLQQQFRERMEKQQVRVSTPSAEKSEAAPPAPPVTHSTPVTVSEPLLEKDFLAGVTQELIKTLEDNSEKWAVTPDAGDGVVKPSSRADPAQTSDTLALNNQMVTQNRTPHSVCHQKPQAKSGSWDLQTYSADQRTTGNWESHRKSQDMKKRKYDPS

cells = assay type: functional
Cytochrome P450 3A4 = Cytochrome P450 3A4 (Homo sapiens, UniProt P08684);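 note: CYP3A4 tested as one member of a cytochrome P450 panel screen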
Chain of Cytochrome P450 3A4 (P08684 whole entry): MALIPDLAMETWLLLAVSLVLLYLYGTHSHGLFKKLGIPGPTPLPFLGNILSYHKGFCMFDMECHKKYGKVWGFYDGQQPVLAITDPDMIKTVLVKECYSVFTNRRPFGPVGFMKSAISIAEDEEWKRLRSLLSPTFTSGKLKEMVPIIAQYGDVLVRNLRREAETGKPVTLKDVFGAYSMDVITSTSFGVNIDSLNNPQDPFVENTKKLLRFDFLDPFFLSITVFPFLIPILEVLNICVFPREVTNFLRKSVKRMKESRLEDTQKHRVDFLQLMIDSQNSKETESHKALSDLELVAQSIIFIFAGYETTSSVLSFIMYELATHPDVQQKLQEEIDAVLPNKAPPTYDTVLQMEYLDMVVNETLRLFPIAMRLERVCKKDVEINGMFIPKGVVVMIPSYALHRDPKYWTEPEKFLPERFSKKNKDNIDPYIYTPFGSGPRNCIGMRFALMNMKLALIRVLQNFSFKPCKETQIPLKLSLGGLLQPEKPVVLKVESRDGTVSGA

Cytochrome P450 1A2 = target: T2, Cytochrome P450 1A2 (Homo sapiens, UniProt P05177);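 note: PubChem cytochrome P450 panel assay, CYP1A2 panel member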
T2 sequence (P05177 whole entry): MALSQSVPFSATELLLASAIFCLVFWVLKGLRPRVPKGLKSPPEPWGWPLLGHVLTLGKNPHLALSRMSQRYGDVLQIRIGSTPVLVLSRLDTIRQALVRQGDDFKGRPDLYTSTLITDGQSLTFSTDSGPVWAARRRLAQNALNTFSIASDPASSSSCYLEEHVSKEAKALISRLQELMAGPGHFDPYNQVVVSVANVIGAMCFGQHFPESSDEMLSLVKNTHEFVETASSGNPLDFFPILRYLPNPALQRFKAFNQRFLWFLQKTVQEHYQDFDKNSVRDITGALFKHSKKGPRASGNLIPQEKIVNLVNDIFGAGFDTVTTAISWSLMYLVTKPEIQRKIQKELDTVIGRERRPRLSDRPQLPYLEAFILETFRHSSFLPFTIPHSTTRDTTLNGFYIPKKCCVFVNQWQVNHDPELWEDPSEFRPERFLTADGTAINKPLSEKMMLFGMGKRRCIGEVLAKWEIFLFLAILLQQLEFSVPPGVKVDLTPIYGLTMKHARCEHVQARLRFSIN

[10] = target: T3, Alkaline phosphatase, tissue-nonspecific isozyme (Homo sapiens, UniProt P05186); experiment: potency against alkaline phosphatase TNAP – biochemical, luminescent, dose response, SAR follow-up (AID 1056)
T3 sequence (P05186 whole entry): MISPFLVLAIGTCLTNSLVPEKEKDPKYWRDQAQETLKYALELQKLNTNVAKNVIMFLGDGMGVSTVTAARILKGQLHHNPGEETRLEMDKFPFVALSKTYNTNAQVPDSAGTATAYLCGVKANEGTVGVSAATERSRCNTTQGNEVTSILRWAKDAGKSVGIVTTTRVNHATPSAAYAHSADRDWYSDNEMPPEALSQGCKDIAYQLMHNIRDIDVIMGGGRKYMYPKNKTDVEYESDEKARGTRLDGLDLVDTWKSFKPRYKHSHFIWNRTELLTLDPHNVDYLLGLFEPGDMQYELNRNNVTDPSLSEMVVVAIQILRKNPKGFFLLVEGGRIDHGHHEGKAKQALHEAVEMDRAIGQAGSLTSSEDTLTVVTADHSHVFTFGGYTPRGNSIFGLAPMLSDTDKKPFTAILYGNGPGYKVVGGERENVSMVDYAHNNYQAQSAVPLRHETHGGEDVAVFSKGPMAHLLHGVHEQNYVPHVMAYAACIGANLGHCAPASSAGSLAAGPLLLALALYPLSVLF

[11] = target: T4, Rac GTPase-activating protein 1 (Homo sapiens, UniProt Q9H0H5); experiment: blockers of MgcRacGAP-driven Rac1 GTP hydrolysis – biochemical, ADP Hunter fluorescence, primary and confirmatory, confirmation (AID 624330); assay type: functional
T4 sequence (Q9H0H5 whole entry): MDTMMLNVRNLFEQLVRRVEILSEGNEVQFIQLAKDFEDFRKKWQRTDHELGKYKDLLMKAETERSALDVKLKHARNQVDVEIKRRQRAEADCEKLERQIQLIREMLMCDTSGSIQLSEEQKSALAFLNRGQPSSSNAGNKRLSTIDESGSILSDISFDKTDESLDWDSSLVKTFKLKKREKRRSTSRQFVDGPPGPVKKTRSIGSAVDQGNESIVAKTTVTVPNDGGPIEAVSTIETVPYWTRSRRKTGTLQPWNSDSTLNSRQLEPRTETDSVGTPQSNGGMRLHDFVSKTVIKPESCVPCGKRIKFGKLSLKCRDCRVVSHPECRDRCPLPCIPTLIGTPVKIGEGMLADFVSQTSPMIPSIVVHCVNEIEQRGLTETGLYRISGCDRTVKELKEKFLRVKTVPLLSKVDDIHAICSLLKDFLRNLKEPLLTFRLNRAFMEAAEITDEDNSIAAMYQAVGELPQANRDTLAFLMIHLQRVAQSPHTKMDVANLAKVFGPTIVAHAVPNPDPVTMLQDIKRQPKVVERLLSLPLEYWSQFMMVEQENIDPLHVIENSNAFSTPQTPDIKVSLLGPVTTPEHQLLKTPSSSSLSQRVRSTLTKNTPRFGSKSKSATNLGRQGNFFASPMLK

Chain of Genome polyprotein (P29990 2492-3391 limits assumed): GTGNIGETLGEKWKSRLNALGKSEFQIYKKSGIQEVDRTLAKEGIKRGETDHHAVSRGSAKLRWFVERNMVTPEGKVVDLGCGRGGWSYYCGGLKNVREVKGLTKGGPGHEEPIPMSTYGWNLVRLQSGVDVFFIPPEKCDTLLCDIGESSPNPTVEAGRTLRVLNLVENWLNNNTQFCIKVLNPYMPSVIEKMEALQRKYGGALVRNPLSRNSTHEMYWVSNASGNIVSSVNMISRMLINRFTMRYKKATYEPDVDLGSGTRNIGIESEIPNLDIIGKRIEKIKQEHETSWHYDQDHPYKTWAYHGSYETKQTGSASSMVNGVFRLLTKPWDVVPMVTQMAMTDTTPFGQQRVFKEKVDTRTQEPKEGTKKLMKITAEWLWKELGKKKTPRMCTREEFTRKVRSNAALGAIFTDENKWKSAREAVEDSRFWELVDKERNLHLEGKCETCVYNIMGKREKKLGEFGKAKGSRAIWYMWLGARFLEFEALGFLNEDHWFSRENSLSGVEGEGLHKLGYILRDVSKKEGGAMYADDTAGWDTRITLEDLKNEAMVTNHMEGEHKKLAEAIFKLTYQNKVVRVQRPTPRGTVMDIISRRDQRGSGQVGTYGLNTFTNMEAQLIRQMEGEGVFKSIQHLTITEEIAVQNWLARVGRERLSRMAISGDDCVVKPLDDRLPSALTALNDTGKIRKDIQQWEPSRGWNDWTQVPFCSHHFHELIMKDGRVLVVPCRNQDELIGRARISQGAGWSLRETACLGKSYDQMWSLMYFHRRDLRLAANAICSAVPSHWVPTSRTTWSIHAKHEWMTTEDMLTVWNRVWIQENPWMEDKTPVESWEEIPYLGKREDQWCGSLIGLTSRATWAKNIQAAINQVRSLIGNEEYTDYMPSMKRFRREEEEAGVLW

In the case of `COc1cc(CNc2ccc(N3CCCC3)cc2)ccc1OCc1ccccc1F`, the IC50 (Genome polyprotein) is reported as 54.2 µM (active), the CC50 (Vero) is reported as > 40 µM (active) and the IC50 [1] is reported as > 64 µM (inactive). The IC50 [2] was > 80 µM (inactive).
With `O=C(CSc1nnc2ccc3ccccc3n12)N1CCOCC1` the EC50 [3] was > 120 µM (not active), the EC50 [4] was 14.6 µM (active) and the EC50 (H4) was 14.4 µM (inconclusive).
With `Cc1cc(C(=O)Nc2ccc(O)c(C(=O)O)c2)c(C)o1` the IC50 [5] was > 100 µM (not active).
In the case of `CCc1nccn1CCC(=O)N1CCCC(N2CCN(c3cccc(Cl)c3)CC2)C1` (stereo unspecified), the EC50 [3] is reported as > 120 µM (not active), the EC50 [4] is reported as 25.5 µM (active) and the EC50 (H4) is reported as 16.3 µM (active).
For `CN(C)CC/C=C1\c2ccccc2Sc2cc(F)c(Cl)cc21`, the CC50 [6] was 17 µM (active), the CC50 [7] was > 20 µM (active) and the CC50 [8] was > 20 µM (active). For the same compound, the AC50 [9] was 15.1 µM (active) and the IC50 (cells) was 20.8 µM (active).
With `Cc1ccc(Oc2ncc(CN3CCOCC3)s2)cc1` the AC50 (Cytochrome P450 3A4) was 20 µM (inconclusive), the EC50 [3] was 13.1 µM (active) and the EC50 [4] was 13.1 µM (active). The EC50 (H4) was 40.4 µM (active) and the AC50 (Cytochrome P450 1A2) was 22.4 µM (inconclusive).
For `C/C(=N\NC(=O)c1nc2ccccn2c1C)c1ccco1`, the EC50 [3] was 14.4 µM (active), the EC50 [4] was > 120 µM (not active) and the EC50 (H4) was 15.7 µM (active).
With `Cc1cc(C)nc(SCC(=O)c2ccc(O)c(O)c2)n1` the IC50 [10] was 5.76 µM (active) and the IC50 [11] was 30.6 µM (active).
